# Results from US11081236B2, “Diagnostic and therapeutic methods for the treatment of breast cancer” (GENENTECH, INC., priority 2018, dated 2021).
# Legend:
# Assay type in all cases: cell-based
# HCC1500 = experiment: RNA sequencing after E2 or DMSO treatment, HCC1500
# Experimental: (§1) To derive a transcriptional signature of ER pathway activity, RNA sequencing was performed on seven breast cancer cell lines following treatment with either DMSO or 1 μM estradiol (E2) for 24 hours. Briefly, RNA libraries for cell lines were made with TRUSEQ® RNA sample preparation kit (ILLUMINA®) according to the manufacturer's protocol. The libraries were sequenced on an ILLUMINA® Hi Seq 2000, using 1-4 lanes per cell line. RNA sequencing (RNA-seq) data were analyzed with HTSeqGenie (R package version 3.14.0) in BioConductor (Huber et al. Nature Methods. 112:115-21, 2015) as follows: reads were trimmed to 75 base pairs (bp), filtered for quality and rRNA/adapter contamination, and aligned to the reference genome GRCh38 using GSNAP (Wu et al. Bioinforma Oxf Engl. 26:873-81, 2010). Gene expression was quantified as Reads per Kilobase of exon model per Million mapped reads normalized by size factor (nRPKM), defined as number of reads aligning to a gene in a sample/(total number of uniquely mapped reads for that sample x gene length x size factor). Genes without gene symbol and genes of uncertain function (LOC and Corf symbols) were excluded.
# EFM19 = experiment: RNA sequencing after E2 or DMSO treatment, EFM19
# Experimental: as §1
# BT474 = experiment: RNA sequencing after E2 or DMSO treatment, BT474
# Experimental: as §1
# MDA-MB-330 = experiment: RNA sequencing after E2 or DMSO treatment, MDA-MB-330
# Experimental: as §1
# [1] = gene NBEA, 1 μM E2 24 hours vs DMSO
# [2] = gene PNPLA7, 1 μM E2 24 hours vs DMSO
# [3] = gene PSCA, 1 μM E2 24 hours vs DMSO
# [4] = gene SEMASE, 1 μM E2 24 hours vs DMSO
# [5] = gene SSPO, 1 μM E2 24 hours vs DMSO
# [6] = gene STON1, 1 μM E2 24 hours vs DMSO
# [7] = gene TGFB3, 1 μM E2 24 hours vs DMSO
# [8] = gene TP53INP1, 1 μM E2 24 hours vs DMSO
# [9] = gene TP53INP2, 1 μM E2 24 hours vs DMSO
# [10] = gene BAMBI, 1 μM E2 24 hours vs DMSO
# [11] = gene BCAS1, 1 μM E2 24 hours vs DMSO
# [12] = gene CCNG2, 1 μM E2 24 hours vs DMSO
# [13] = gene DDEE4, 1 μM E2 24 hours vs DMSO
# [14] = gene EGLN3, 1 μM E2 24 hours vs DMSO
# [15] = gene FAM1718, 1 μM E2 24 hours vs DMSO
# [16] = gene GRM4, 1 μM E2 24 hours vs DMSO
# [17] = gene IL1R1, 1 μM E2 24 hours vs DMSO
# [18] = gene LIPH, 1 μM E2 24 hours vs DMSO
smiles,measurement,setting,value
"C[C@]12CC[C@@H]3c4ccc(O)cc4CC[C@H]3[C@@H]1CC[C@@H]2O [Compound E2, estradiol]",Log2 FC E2 vs no E2: NBEA,HCC1500; [1],−1.190
same,Log2 FC E2 vs no E2: PNPLA7,HCC1500; [2],−1.376
same,Log2 FC E2 vs no E2: PSCA,HCC1500; [3],−1.726
same,Log2 FC E2 vs no E2: SEMASE,HCC1500; [4],−1.058
same,Log2 FC E2 vs no E2: SSPO,HCC1500; [5],−1.304
same,Log2 FC E2 vs no E2: STON1,HCC1500; [6],−1.279
same,Log2 FC E2 vs no E2: TGFB3,HCC1500; [7],−1.214
same,Log2 FC E2 vs no E2: TP53INP1,HCC1500; [8],−1.777
same,Log2 FC E2 vs no E2: TP53INP2,HCC1500; [9],−1.073
same,Log2 FC E2 vs no E2: BAMBI,EFM19; [10],−1.554
same,Log2 FC E2 vs no E2: BCAS1,EFM19; [11],−2.189
same,Log2 FC E2 vs no E2: CCNG2,EFM19; [12],−1.442
same,Log2 FC E2 vs no E2: DDEE4,EFM19; [13],−1.101
same,Log2 FC E2 vs no E2: EGLN3,EFM19; [14],−1.008
same,Log2 FC E2 vs no E2: FAM1718,EFM19; [15],−1.910
same,Log2 FC E2 vs no E2: GRM4,EFM19; [16],−1.141
same,Log2 FC E2 vs no E2: IL1R1,EFM19; [17],−2.327
same,Log2 FC E2 vs no E2: LIPH,EFM19; [18],−1.844
same,Log2 FC E2 vs no E2: NBEA,EFM19; [1],−1.105
same,Log2 FC E2 vs no E2: PNPLA7,EFM19; [2],−0.901
same,Log2 FC E2 vs no E2: PSCA,EFM19; [3],−1.593
same,Log2 FC E2 vs no E2: SEMASE,EFM19; [4],−1.100
same,Log2 FC E2 vs no E2: SSPO,EFM19; [5],−0.605
same,Log2 FC E2 vs no E2: STON1,EFM19; [6],−1.500
same,Log2 FC E2 vs no E2: TGFB3,EFM19; [7],−1.350
same,Log2 FC E2 vs no E2: TP53INP1,EFM19; [8],−1.461
same,Log2 FC E2 vs no E2: TP53INP2,EFM19; [9],−1.373
same,Log2 FC E2 vs no E2: BAMBI,BT474; [10],−1.153
same,Log2 FC E2 vs no E2: BCAS1,BT474; [11],−1.110
same,Log2 FC E2 vs no E2: CCNG2,BT474; [12],−0.935
same,Log2 FC E2 vs no E2: DDEE4,BT474; [13],−0.862
same,Log2 FC E2 vs no E2: EGLN3,BT474; [14],−0.118
same,Log2 FC E2 vs no E2: FAM1718,BT474; [15],−1.279
same,Log2 FC E2 vs no E2: GRM4,BT474; [16],−1.883
same,Log2 FC E2 vs no E2: IL1R1,BT474; [17],−1.490
same,Log2 FC E2 vs no E2: LIPH,BT474; [18],−0.804
same,Log2 FC E2 vs no E2: NBEA,BT474; [1],−0.346
same,Log2 FC E2 vs no E2: PNPLA7,BT474; [2],−1.427
same,Log2 FC E2 vs no E2: PSCA,BT474; [3],−1.956
same,Log2 FC E2 vs no E2: SEMASE,BT474; [4],−1.101
same,Log2 FC E2 vs no E2: SSPO,BT474; [5],−1.739
same,Log2 FC E2 vs no E2: STON1,BT474; [6],−0.650
same,Log2 FC E2 vs no E2: TGFB3,BT474; [7],−0.304
same,Log2 FC E2 vs no E2: TP53INP1,BT474; [8],−1.496
same,Log2 FC E2 vs no E2: TP53INP2,BT474; [9],−2.069
same,Log2 FC E2 vs no E2: BAMBI,MDA-MB-330; [10],−1.352
same,Log2 FC E2 vs no E2: BCAS1,MDA-MB-330; [11],−1.772
same,Log2 FC E2 vs no E2: CCNG2,MDA-MB-330; [12],−1.009
same,Log2 FC E2 vs no E2: DDEE4,MDA-MB-330; [13],−1.321
same,Log2 FC E2 vs no E2: EGLN3,MDA-MB-330; [14],−2.785
same,Log2 FC E2 vs no E2: FAM1718,MDA-MB-330; [15],−2.790
same,Log2 FC E2 vs no E2: GRM4,MDA-MB-330; [16],−2.281
same,Log2 FC E2 vs no E2: IL1R1,MDA-MB-330; [17],−0.941
same,Log2 FC E2 vs no E2: LIPH,MDA-MB-330; [18],−1.737
same,Log2 FC E2 vs no E2: NBEA,MDA-MB-330; [1],−1.044
same,Log2 FC E2 vs no E2: PNPLA7,MDA-MB-330; [2],−1.084
same,Log2 FC E2 vs no E2: PSCA,MDA-MB-330; [3],−2.529
same,Log2 FC E2 vs no E2: SEMASE,MDA-MB-330; [4],−2.427
same,Log2 FC E2 vs no E2: SSPO,MDA-MB-330; [5],−1.383
same,Log2 FC E2 vs no E2: STON1,MDA-MB-330; [6],−1.081
same,Log2 FC E2 vs no E2: TGFB3,MDA-MB-330; [7],−1.111
same,Log2 FC E2 vs no E2: TP53INP1,MDA-MB-330; [8],−1.304
same,Log2 FC E2 vs no E2: TP53INP2,MDA-MB-330; [9],−1.210
